From ChEMBL document CHEMBL5113452, “Synthesis and biological evaluation of hybrids from optically active ring-opened 3-N-butylphthalide derivatives and 4-fluro-edaravone as potential anti-acute ischemic stroke agents” (Bioorg Med Chem, 2022)
Active and inactive are the calls of the source. No cut-off for these calls is given here.

What was measured:
[1] = Half life in Sprague-Dawley rat plasma at 4.48 mg/kg, iv and measured upto 24 hrs by LC-MS/MS analysis; format: ADME, organism-based
[2] = Volume of distribution at steady state in Sprague-Dawley rat plasma at 4.48 mg/kg, iv and measured upto 24 hrs in presence of 4-F-Eda by LC-MS/MS analysis; format: ADME, organism-based; conditions: read-out: Vdss
[3] = MRT in Sprague-Dawley rat plasma at 4.48 mg/kg, iv and measured upto 24 hrs in presence of 4-F-Eda by LC-MS/MS analysis; format: ADME, organism-based
[4] = AUMC (0-infinity) in Sprague-Dawley rat plasma at 4.48 mg/kg, iv and measured upto 24 hrs by LC-MS/MS analysis; format: ADME, organism-based; conditions: in vivo
[5] = Toxicity in transient middle cerebral artery occlusion induced ischemia stroke Sprague-Dawley rat model assessed as change in body weight at 4.48 mg/kg, iv and measured after 24 hrs in presence of EDA; format: organism-based; conditions: in vivo
Rattus norvegicus [6] = experiment: Neuroprotective activity against transient middle cerebral artery occlusion induced cerebral infraction Sprague-Dawley rat model assessed as decrease in brain edema at 4.48 mg/kg, iv and measured after 24 hrs in presence of EDA; format: functional, organism-based
[7] = Clearance in Sprague-Dawley rat plasma at 4.48 mg/kg, iv and measured upto 24 hrs in presence of 4-F-Eda by LC-MS/MS analysis; format: ADME, organism-based
[8] = Cmax in Sprague-Dawley rat plasma at 4.48 mg/kg, iv and measured upto 24 hrs in presence of 4-F-Eda by LC-MS/MS analysis; format: ADME, organism-based; parameters: time < 24 hrs, dose 4.48 mg/kg, route iv
[9] = Cmax in Sprague-Dawley rat plasma at 4.48 mg/kg, iv and measured upto 24 hrs by LC-MS/MS analysis; format: ADME, organism-based; parameters: dose 4.48 mg/kg, time < 24 hrs, route iv
[10] = AUC (0-t) in Sprague-Dawley rat plasma at 4.48 mg/kg, iv and measured upto 24 hrs by LC-MS/MS analysis; format: ADME, organism-based; parameters: time < 24 hrs, dose 4.48 mg/kg, route iv
[11] = Elimination rate constant in Sprague-Dawley rat plasma at 4.48 mg/kg, iv and measured upto 24 hrs by LC-MS/MS analysis; format: ADME, organism-based
[12] = AUMC (0-t) in Sprague-Dawley rat plasma at 4.48 mg/kg, iv and measured upto 24 hrs by LC-MS/MS analysis; format: ADME, organism-based; conditions: in vivo
[13] = AUC (0-t) in Sprague-Dawley rat plasma at 4.48 mg/kg, iv and measured upto 24 hrs in presence of 4-F-Eda by LC-MS/MS analysis; format: ADME, organism-based; parameters: time < 24 hrs, dose 4.48 mg/kg, route iv
Rattus norvegicus [14] = experiment: Neuroprotective activity against transient middle cerebral artery occlusion induced cerebral infraction Sprague-Dawley rat model assessed as decrease in cerebral infraction volume at 4.48 mg/kg, iv and measured after 24 hrs in presence of EDA by TTC staining based assay; format: functional; parameters: scale not given: the % may be the effect or the level left
[15] = AUC (0-infinity) in Sprague-Dawley rat plasma at 4.48 mg/kg, iv and measured upto 24 hrs by LC-MS/MS analysis; format: ADME, organism-based; parameters: time < 24 hrs, dose 4.48 mg/kg, route iv
[16] = Volume of distribution at steady state in Sprague-Dawley rat plasma at 4.48 mg/kg, iv and measured upto 24 hrs by LC-MS/MS analysis; format: ADME, organism-based; conditions: read-out: Vdss
[17] = Elimination rate constant in Sprague-Dawley rat plasma at 4.48 mg/kg, iv and measured upto 24 hrs in presence of 4-F-Eda by LC-MS/MS analysis; format: ADME, organism-based
[18] = AUMC (0-infinity) in Sprague-Dawley rat plasma at 4.48 mg/kg, iv and measured upto 24 hrs in presence of 4-F-Eda by LC-MS/MS analysis; format: ADME, organism-based; conditions: in vivo
[19] = MRT in Sprague-Dawley rat plasma at 4.48 mg/kg, iv and measured upto 24 hrs by LC-MS/MS analysis; format: ADME, organism-based
Rattus norvegicus [20] = experiment: Neuroprotective activity against transient middle cerebral artery occlusion induced ischemia stroke Sprague-Dawley rat model assessed as increase in neuro-fucntional score at 4.48 mg/kg, iv and measured after 24 hrs in presence of Eda by longa's method; format: functional, organism-based
[21] = Half life in Sprague-Dawley rat plasma at 4.48 mg/kg, iv and measured upto 24 hrs in presence of 4-F-Eda by LC-MS/MS analysis; format: ADME, organism-based
[22] = C0 in Sprague-Dawley rat plasma at 4.48 mg/kg, iv and measured upto 24 hrs in presence of 4-F-Eda by LC-MS/MS analysis; format: ADME, organism-based
[23] = Clearance in Sprague-Dawley rat plasma at 4.48 mg/kg, iv and measured upto 24 hrs by LC-MS/MS analysis; format: ADME, organism-based
[24] = C0 in Sprague-Dawley rat plasma at 4.48 mg/kg, iv and measured upto 24 hrs by LC-MS/MS analysis; format: ADME, organism-based
[25] = AUC (0-infinity) in Sprague-Dawley rat plasma at 4.48 mg/kg, iv and measured upto 24 hrs in presence of 4-F-Eda by LC-MS/MS analysis; format: ADME, organism-based; parameters: dose 4.48 mg/kg, time < 24 hrs, route iv
[26] = AUMC (0-t) in Sprague-Dawley rat plasma at 4.48 mg/kg, iv and measured upto 24 hrs in presence of 4-F-Eda by LC-MS/MS analysis; format: ADME, organism-based; conditions: in vivo
Rattus norvegicus [27] = experiment: Neuroprotective activity against transient middle cerebral artery occlusion induced ischemia stroke Sprague-Dawley rat model assessed as increase in neuro-fucntional score at 5.9 mg/kg, iv and measured after 24 hrs in presence of 4-F-Eda by longa's method; format: functional, organism-based
Rattus norvegicus [28] = experiment: Neuroprotective activity against transient middle cerebral artery occlusion induced ischemia stroke Sprague-Dawley rat model assessed as increase in neuro-fucntional score at 5.9 mg/kg, iv and measured after 24 hrs by longa's method; format: functional, organism-based
Rattus norvegicus [29] = experiment: Neuroprotective activity against transient middle cerebral artery occlusion induced cerebral infraction Sprague-Dawley rat model assessed as decrease in cerebral infraction volume at 5.9 mg/kg, iv and measured after 24 hrs by TTC staining based assay; format: functional; parameters: scale not given: the % may be the effect or the level left
Rattus norvegicus [30] = experiment: Neuroprotective activity against transient middle cerebral artery occlusion induced cerebral infraction Sprague-Dawley rat model assessed as decrease in cerebral infraction volume at 5.9 mg/kg, iv and measured after 24 hrs in presence of 4-F-Eda by TTC staining based assay; format: functional; parameters: scale not given: the % may be the effect or the level left
Rattus norvegicus [31] = experiment: Neuroprotective activity against transient middle cerebral artery occlusion induced cerebral infraction Sprague-Dawley rat model assessed as decrease in brain edema at 5.9 mg/kg, iv and measured after 24 hrs in presence of 4-F-Eda; format: functional, organism-based
[32] = Toxicity in transient middle cerebral artery occlusion induced ischemia stroke Sprague-Dawley rat model assessed as change in body weight at 5.90 mg/kg, iv and measured after 24 hrs; format: organism-based; conditions: in vivo, 5.9 mg/kg
[33] = Toxicity in transient middle cerebral artery occlusion induced ischemia stroke Sprague-Dawley rat model assessed as change in body weight at 5.90 mg/kg, iv and measured after 24 hrs in presence of 4-F-Eda; format: organism-based; conditions: in vivo, 5.9 mg/kg
Rattus norvegicus [34] = experiment: Neuroprotective activity against transient middle cerebral artery occlusion induced ischemia stroke Sprague-Dawley rat model assessed as increase in neuro-fucntional score at 10 mg/kg, iv and measured after 24 hrs by longa's method; format: functional, organism-based
Rattus norvegicus [35] = experiment: Neuroprotective activity against transient middle cerebral artery occlusion induced cerebral infraction Sprague-Dawley rat model assessed as decrease in brain edema at 10 mg/kg, iv and measured after 24 hrs; format: functional
Rattus norvegicus [36] = experiment: Neuroprotective activity against transient middle cerebral artery occlusion induced cerebral infraction Sprague-Dawley rat model assessed as decrease in cerebral infraction volume at 10 mg/kg, iv and measured after 24 hrs by TTC staining based assay; format: functional; parameters: scale not given: the % may be the effect or the level left
[37] = Toxicity in transient middle cerebral artery occlusion induced ischemia stroke Sprague-Dawley rat model assessed as change in body weight at 10 mg/kg, iv and measured after 24 hrs; format: organism-based; conditions: in vivo
Rattus norvegicus [38] = experiment: Neuroprotective activity against transient middle cerebral artery occlusion induced cerebral ischemia Sprague-Dawley rat model assessed as decrease in infract volume at 70 mg/kg, po and measured after 24 hrs by TTC staining based assay; format: functional; parameters: scale not given: the % may be the effect or the level left
Rattus norvegicus [39] = experiment: Neuroprotective activity against transient middle cerebral artery occlusion induced cerebral ischemia Sprague-Dawley rat model assessed as decrease in infract volume at 140 mg/kg, po and measured after 24 hrs by TTC staining based assay; format: functional; parameters: scale not given: the % may be the effect or the level left

Q: Which half-life [1] does the source give for `CCCC[C@@H]1OC(=O)c2ccccc21` [(3S)-BUTYLPHTHALIDE] here?
A: 0.97 h

Q: And the Vd [2]?
A: 2.73 L/kg

Q: What about the MRT [3] of the same molecule?
A: 1.74 h

Q: And the AUMC [4]?
A: 998 hr.hr.ng/ml

Q: And the Activity [5]?
A: Non-Toxic

Q: And the Activity (Rattus norvegicus [6])?
A: Active

Q: And the clearance [7]?
A: 26.3 mL/min/kg

Q: What about the Cmax [8] of the same molecule?
A: 6920 ng/mL

Q: And the Cmax [9]?
A: 3290 ng/mL

Q: And the AUC(0-t) at 24 h [10]?
A: 1470 ng·h/mL

Q: What about the k el at 24 h [11] of the same molecule?
A: 0.000202 s⁻¹

Q: And the AUMCt [12]?
A: 943 hr.hr.ng/ml

Q: What about the AUC(0-t) at 24 h [13] of the same molecule?
A: 2840 ng·h/mL

Q: And the Activity (Rattus norvegicus [14])?
A: 57.7%

Q: What about the AUC(0-inf) [15] of the same molecule?
A: 1480 ng·h/mL

Q: What about the Vd [16] of the same molecule?
A: 2.08 L/kg

Q: And the k el at 24 h [17]?
A: 4.06e-05 s⁻¹

Q: And the AUMC [18]?
A: 5006 hr.hr.ng/ml

Q: And the MRT [19]?
A: 0.678 h

Q: And the Activity (Rattus norvegicus [20])?
A: Active

Q: And the half-life [21]?
A: 5.05 h

Q: What about the C0 at 24 h [22] of the same molecule?
A: 13000 ng/mL

Q: What about the clearance [23] of the same molecule?
A: 51.1 mL/min/kg

Q: And the C0 at 24 h [24]?
A: 5310 ng/mL

Q: What about the AUC(0-inf) [25] of the same molecule?
A: 2870 ng·h/mL

Q: And the AUMCt [26]?
A: 3819 hr.hr.ng/ml

Q: What does the source list for `CCCC[C@H](OC(C)=O)c1ccccc1C(=O)O`?
A: Activity (Rattus norvegicus [27]): Active; Activity (Rattus norvegicus [28]): Active; Activity (Rattus norvegicus [29]): 12.67%; Activity (Rattus norvegicus [30]): 68.37%; Activity (Rattus norvegicus [31]): Active; Activity [32]: Non-Toxic; Activity [33]: Non-Toxic

Q: With `CCCC[C@@H](OC(C)=O)c1ccccc1C(=O)Oc1cc(C)nn1-c1ccc(F)cc1` as the molecule, how does the Activity (Rattus norvegicus [34]) read?
A: Active

Q: What about the Activity (Rattus norvegicus [35]) of the same molecule?
A: Active

Q: What about the Activity (Rattus norvegicus [36]) of the same molecule?
A: 67.56%

Q: And the Activity [37]?
A: Non-Toxic

Q: Which Activity (Rattus norvegicus [38]) does the source give for `CCCCC(OC(C)=O)c1ccccc1C(=O)Oc1cc(C)nn1-c1ccc(F)cc1` (racemic) here?
A: 52.8%

Q: And the Activity (Rattus norvegicus [34])?
A: Active

Q: And the Activity (Rattus norvegicus [36])?
A: 66.89%

Q: And the Activity (Rattus norvegicus [39])?
A: 61.77%

Q: What about the Activity [37] of the same molecule?
A: Non-Toxic
